Tests used:
[1] = Displacement of [125I]CGRP form CGRP receptor in human SK-N-MC cell membrane by competitive binding assay in the absence of MgCl2
[2] = Displacement of [125I]CGRP form CGRP receptor in human SK-N-MC cell membrane by competitive binding assay

Ki [1]: 10 pM
Ki [2]: 10 pM
Structure (SMILES): CC(C)C[C@H](NC(=O)CNC(=O)[C@H](C)NC(=O)[C@H](CC(C)C)NC(=O)[C@H](CCCN=C(N)N)NC(=O)[C@H](Cc1cnc[nH]1)NC(=O)[C@@H](NC(=O)[C@@H](NC(=O)[C@H](CS)NC(=O)[C@@H](NC(=O)[C@H](C)NC(=O)[C@@H](NC(=O)[C@H](CC(=O)O)NC(=O)[C@H](CS)NC(=O)[C@H](C)N)[C@@H](C)O)[C@@H](C)O)C(C)C)[C@@H](C)O)C(=O)N[C@@H](CC(C)C)C(=O)N[C@@H](CO)C(=O)N[C@@H](CCCN=C(N)N)C(=O)N[C@@H](CO)C(=O)NCC(=O)NCC(=O)N[C@H](C(=O)N[C@H](C(=O)N[C@@H](CCCCN)C(=O)N[C@@H](CC(N)=O)C(=O)N[C@@H](CC(N)=O)C(=O)N[C@@H](Cc1ccccc1)C(=O)N[C@H](C(=O)N1CCC[C@H]1C(=O)N[C@H](C(=O)N[C@@H](CC(N)=O)C(=O)N[C@H](C(=O)NCC(=O)N[C@@H](CO)C(=O)N[C@@H](CCCCN)C(=O)N[C@@H](C)C(=O)N[C@@H](Cc1ccccc1)C(N)=O)C(C)C)[C@@H](C)O)C(C)C)C(C)C)C(C)C

From BindingDB's records for doi:10.1016/j.bmcl.2011.09.056 (Merck Research Laboratories, 2011)
